Activity calls are given as the source filed them. No cut-off for these calls is given here.
Key:
NCI-H446 = experiment: Cytotoxicity against human H446 cells; format: functional, cell-based
MGC-803 = experiment: Cytotoxicity against human MGC-803 cells; format: functional, cell-based
LNCaP C4-2B [1] = experiment: Cytotoxicity against human C42B cells; format: functional, cell-based
RWPE-1 = experiment: Cytotoxicity against human RWPE-1 cells; format: cell-based
CWR22R [2] = experiment: Cytotoxicity against human 22Rv1 cells; format: functional, cell-based
MDA-MB-231 = experiment: Cytotoxicity against human MDA-MB-231 cells; format: functional, cell-based
[3] = Selective index, ratio of IC50 for human RWPE1 to IC50 for human LNCaP C4-2B cells; format: toxicity; conditions: RWPE1 cells and LNCaP C4-2B cells, read-out: Selectivity Index
LNCaP C4-2B [4] = experiment: Induction of apoptosis in human C4-2B cells assessed as increase in cleaved PARP1 level after 24 hrs by immunoblotting analysis relative to control; format: functional, cell-based
LNCaP C4-2B [5] = experiment: Induction of morphological changes in human C4-2B cells assessed as increase in intracellular spaces incubated for 24 hrs by microscopy; format: functional, cell-based
LNCaP C4-2B [6] = experiment: Inhibition of colony formation in human C4-2B cells at 0.075 to 0.3 uM for 12 days by crystal violet staining based assay; format: functional, cell-based; conditions: dose 0.075-0.3 µM, time 12.0 day
LNCaP C4-2B [7] = experiment: Inhibition of androgen receptor protein expression in human C4-2B cells incubated for […] by Immunoblotting analysis; format: functional, cell-based
LNCaP C4-2B [8] = experiment: Inhibition of androgen receptor mRNA expression in human C4-2B cells incubated for […] by qRT-PCR analysis; format: functional, cell-based
CWR22R [9] = experiment: Inhibition of androgen receptor mRNA expression in human 22Rv1 cells incubated for […] by […] analysis; format: functional, cell-based
LNCaP C4-2B [10] = experiment: Induction of apoptosis in human C4-2B cells assessed as inhibition of KLK3 mRNA expression at 0.075 to 0.3 uM incubated for […] by qRT-PCR analysis; format: functional, cell-based; conditions: dose 0.075-0.3 µM
[11] = Selective index, ratio of IC50 for human RWPE1 to IC50 for human H446 cells
LNCaP C4-2B [12] = experiment: Induction of apoptosis in human C4-2B cells assessed as increase in cleaved 7 level after 24 hrs by immunoblotting analysis relative to control; format: functional, cell-based
CWR22R [13] = experiment: Induction of apoptosis in human 22Rv1 cells assessed as increase in cleaved 7 level after 24 hrs by immunoblotting analysis relative to control; format: functional, cell-based
CWR22R [14] = experiment: Inhibition of androgen receptor protein expression in human 22Rv1 cells incubated for […] by Immunoblotting analysis; format: functional, cell-based
CWR22R [15] = experiment: Induction of apoptosis in human 22Rv1 cells assessed as increase in caspase 3/7 activity at 0.3 uM after 24 hrs relative to control; format: functional, cell-based
CWR22R [16] = experiment: Induction of apoptosis in human 22Rv1 cells assessed as inhibition of Cyclin E protein expression at 0.15 to 0.6 uM incubated for […] by Immunoblotting analysis; format: functional, cell-based; conditions: dose 0.15-0.6 µM
LNCaP C4-2B [17] = experiment: Induction of cell cycle arrest in human C4-2B cells assessed as accumulation of cells at G2-M phase at 0.3 uM incubated for 48 hrs by RED-B-HLi fluorescence assay (reference value: 15.74%); format: functional
CWR22R [18] = experiment: Induction of apoptosis in human 22Rv1 cells assessed as increase in cleaved PARP1 level after 24 hrs by immunoblotting analysis relative to control; format: functional, cell-based
CWR22R [19] = experiment: Inhibition of colony formation in human 22Rv1 cells at 0.075 to 0.3 uM for 12 days by crystal violet staining based assay; format: functional, cell-based; conditions: dose 0.075-0.3 µM, time 12.0 day
LNCaP C4-2B [20] = experiment: Induction of apoptosis in human C4-2B cells assessed as inhibition of Cmyc protein expression at 0.075 to 0.3 uM incubated for […] by Immunoblotting analysis; format: functional, cell-based; conditions: dose 0.075-0.3 µM
CWR22R [21] = experiment: Induction of apoptosis in human 22Rv1 cells assessed as inhibition of KLK2 mRNA expression at 0.15 to 0.6 uM incubated for […] by qRT-PCR analysis; format: functional, cell-based; conditions: dose 0.15-0.6 µM
CWR22R [22] = experiment: Induction of apoptosis in human 22Rv1 cells assessed as inhibition of Cmyc protein expression at 0.15 to 0.6 uM incubated for […] by Immunoblotting analysis; format: functional, cell-based; conditions: dose 0.15-0.6 µM, time […]
LNCaP C4-2B [23] = experiment: Induction of morphological changes in human C4-2B cells assessed as decrease in cell size incubated for 24 hrs by microscopy; format: functional, cell-based
LNCaP C4-2B [24] = experiment: Induction of apoptosis in human C4-2B cells assessed as inhibition of Cyclin E protein expression at 0.075 to 0.3 uM incubated for […] by Immunoblotting analysis; format: functional, cell-based; conditions: dose 0.075-0.3 µM
LNCaP C4-2B [25] = experiment: Induction of cell cycle arrest in human C4-2B cells assessed as accumulation of cells at G0/G1 phase at 0.3 uM incubated for 48 hrs by RED-B-HLi fluorescence assay (reference value: 41.57%); format: functional
LNCaP C4-2B [26] = experiment: Induction of apoptosis in human C4-2B cells assessed as inhibition of KLK2 mRNA expression at 0.075 to 0.3 uM incubated for […] by qRT-PCR analysis; format: functional, cell-based; conditions: dose 0.075-0.3 µM
LNCaP C4-2B [27] = experiment: Induction of cell cycle arrest in human C4-2B cells assessed as accumulation of cells at S phase at 0.3 uM incubated for 48 hrs by RED-B-HLi fluorescence assay (reference value: 42.69%); format: functional
LNCaP C4-2B [28] = experiment: Induction of apoptosis in human C4-2B cells assessed as increase in caspase 3/7 activity at 0.3 uM after 24 hrs relative to control; format: functional, cell-based
CWR22R [29] = experiment: Induction of apoptosis in human 22Rv1 cells assessed as inhibition of KLK3 mRNA expression at 0.15 to 0.6 uM incubated for […] by qRT-PCR analysis; format: functional, cell-based; conditions: dose 0.15-0.6 µM

SMILES: COC1=C2C[C@@H](C)C[C@H](OC)[C@H](O)[C@@H](C)/C=C(\C)[C@H](OC(N)=O)[C@@H](OC)/C=C\C=C(/C)C(=O)NC(=CC1=O)C2=O [GELDANAMYCIN]
- IC50 (NCI-H446): 2.2 µM
- IC50 (MGC-803): 3.3 µM
- IC50 (LNCaP C4-2B [1]): 0.5 µM
- IC50 (RWPE-1): 3.8 µM
- IC50 (CWR22R [2]): 0.85 µM
- IC50 (MDA-MB-231): 1.9 µM
- selectivity ratio [3]: 7.6

SMILES: CC[C@@H]1[C@@H](C)O[C@@](OC)(/C(C)=C/[C@H](C)[C@H]2OC(=O)/C=C/C=C/[C@H](C)[C@@H]([C@@H](C)/C=C(\C)[C@@]3(OC)C[C@@H](OC)[C@H](CC)[C@@H](C)O3)OC(=O)/C=C/C=C/[C@@H]2C)C[C@H]1OC
- IC50 (NCI-H446): 25 µM
- IC50 (MGC-803): 10 µM
- IC50 (LNCaP C4-2B [1]): 14 µM
- IC50 (CWR22R [2]): 23 µM
- IC50 (MDA-MB-231): 7.2 µM

SMILES: CO[C@H]1C[C@H](C)Cc2cc(O)cc(c2)NC(=O)/C(C)=C/CC[C@H](OC)[C@@H](OC(N)=O)/C(C)=C/[C@H](C)[C@H]1O
- IC50 (NCI-H446): 28 µM
- IC50 (MGC-803): > 40 µM
- IC50 (LNCaP C4-2B [1]): 32 µM
- IC50 (CWR22R [2]): 35 µM
- IC50 (MDA-MB-231): > 40 µM

SMILES: CNC(=O)c1ccc(N2C(=S)N(c3ccc(C#N)c(C(F)(F)F)c3)C(=O)C2(C)C)cc1F [ENZALUTAMIDE]
- IC50 (RWPE-1): > 40 µM
- IC50 (CWR22R [2]): 38 µM
- selectivity ratio [3]: > 2.2

SMILES: CC[C@@H](/C=C/C(=O)[C@@H](C)[C@H](O)[C@H](C)[C@H]1OC(=O)/C=C/C=C/[C@H](C)[C@@H]([C@@H](C)[C@@H](O)[C@H](C)C(=O)/C=C/[C@H](CC)[C@@H](C)O)OC(=O)/C=C/C=C/[C@@H]1C)[C@@H](C)O
- IC50 (NCI-H446): 25 µM
- IC50 (MGC-803): > 40 µM
- IC50 (LNCaP C4-2B [1]): 25 µM
- IC50 (CWR22R [2]): > 40 µM
- IC50 (MDA-MB-231): > 40 µM

SMILES: CO[C@H]1/C=C\C=C(/C)C(=O)NC2=CC(=O)C(O)=C(C[C@@H](C)C[C@H](OC)[C@H](O)[C@@H](C)/C=C(\C)[C@@H]1OC(N)=O)C2=O
- IC50 (NCI-H446): 25 µM
- IC50 (MGC-803): 19 µM
- IC50 (LNCaP C4-2B [1]): 11 µM
- IC50 (CWR22R [2]): 25 µM
- IC50 (MDA-MB-231): 17 µM

SMILES: CC[C@@H]1[C@@H](C)O[C@@](OC)([C@@H](C)[C@H](O)[C@H](C)[C@H]2OC(=O)/C=C/C=C/[C@H](C)[C@@H]([C@@H](C)[C@@H](O)[C@H](C)[C@@]3(OC)C[C@@H](OC)[C@H](CC)[C@@H](C)O3)OC(=O)/C=C/C=C/[C@@H]2C)C[C@H]1OC
- IC50 (NCI-H446): > 40 µM
- IC50 (MGC-803): > 40 µM
- IC50 (LNCaP C4-2B [1]): > 40 µM
- IC50 (CWR22R [2]): > 40 µM
- IC50 (MDA-MB-231): > 40 µM

SMILES: COC(=O)[C@@]1(O)C(OC)=C2C[C@@H](C)C[C@H](OC)[C@H](O)[C@@H](C)/C=C(\C)[C@H](OC(N)=O)[C@@H](OC)/C=C\C=C(/C)C(=O)N[C@@H]1C2=O
- IC50 (NCI-H446): 2.9 µM
- IC50 (MGC-803): > 40 µM
- IC50 (LNCaP C4-2B [1]): > 40 µM
- IC50 (CWR22R [2]): > 40 µM
- IC50 (MDA-MB-231): > 40 µM

SMILES: COC[C@]1(CCC(C)=C(C)C)Nc2ccc(C(=O)NC3=C(O)CCC3=O)cc2C[C@@H]1Cl
- Activity (LNCaP C4-2B [4]): Dose-Dependent Effect
- Activity (LNCaP C4-2B [5]): Active
- inhibition (LNCaP C4-2B [6]): Active
- inhibition (LNCaP C4-2B [7]): Active
- inhibition (LNCaP C4-2B [8]): Active
- inhibition (CWR22R [9]): Active
- Activity (LNCaP C4-2B [10]): Active
- IC50 (NCI-H446): 0.07 µM
- Selectivity Index [11]: 3.1
- Activity (LNCaP C4-2B [12]): Dose-Dependent Effect
- Activity (CWR22R [13]): Dose-Dependent Effect
- inhibition (CWR22R [14]): Active
- IC50 (MGC-803): 0.11 µM
- Activity (CWR22R [15]): Active
- IC50 (LNCaP C4-2B [1]): 0.067 µM
- Activity (CWR22R [16]): Active
- Activity (LNCaP C4-2B [17]): 19.67%
- Activity (CWR22R [18]): Dose-Dependent Effect
- inhibition (CWR22R [19]): Active
- Activity (LNCaP C4-2B [20]): Active
- Activity (CWR22R [21]): Active
- Activity (CWR22R [22]): Active
- IC50 (RWPE-1): 0.21 µM
- IC50 (CWR22R [2]): 0.27 µM
- Activity (LNCaP C4-2B [23]): Active
- Activity (LNCaP C4-2B [24]): Active
- Activity (LNCaP C4-2B [25]): 56.03%
- Activity (LNCaP C4-2B [26]): Active
- Activity (LNCaP C4-2B [27]): 24.3%
- Activity (LNCaP C4-2B [28]): Active
- IC50 (MDA-MB-231): 0.2 µM
- Activity (CWR22R [29]): Active

SMILES: COC1=C2C[C@@H](C)C[C@H](OC)[C@H](O)[C@@H](C)/C=C(\C)[C@H](OC(N)=O)[C@@H](OC)/C=C\C=C(/C)C(=O)NC(=C(SC)C1=O)C2=O
- IC50 (NCI-H446): 3.9 µM
- IC50 (MGC-803): 7.9 µM
- IC50 (LNCaP C4-2B [1]): 3.6 µM
- IC50 (CWR22R [2]): 3.7 µM
- IC50 (MDA-MB-231): 5.2 µM
